{
  "source": "paper PMC3115021",
  "about": "“Dynamics of Cdk1 Substrate Specificity during the Cell Cycle” (Molecular Cell, 2011)",
  "key": {"Clb4-Cdk1": {"biological_target": "T1, Clb4-Cdk1 (Saccharomyces cerevisiae, UniProt P00546+P24871)", "T1 construct": "made in house", "T1 sequence (P00546 2-298 limits assumed)": "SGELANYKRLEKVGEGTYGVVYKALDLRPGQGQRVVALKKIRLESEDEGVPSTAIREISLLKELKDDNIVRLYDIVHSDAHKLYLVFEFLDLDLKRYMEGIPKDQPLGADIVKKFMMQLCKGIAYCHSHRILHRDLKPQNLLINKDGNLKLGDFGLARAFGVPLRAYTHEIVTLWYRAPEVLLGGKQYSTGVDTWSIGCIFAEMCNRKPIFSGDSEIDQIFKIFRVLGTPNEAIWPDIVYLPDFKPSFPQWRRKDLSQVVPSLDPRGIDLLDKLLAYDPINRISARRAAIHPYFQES", "T1 sequence (P24871 whole entry partner)": "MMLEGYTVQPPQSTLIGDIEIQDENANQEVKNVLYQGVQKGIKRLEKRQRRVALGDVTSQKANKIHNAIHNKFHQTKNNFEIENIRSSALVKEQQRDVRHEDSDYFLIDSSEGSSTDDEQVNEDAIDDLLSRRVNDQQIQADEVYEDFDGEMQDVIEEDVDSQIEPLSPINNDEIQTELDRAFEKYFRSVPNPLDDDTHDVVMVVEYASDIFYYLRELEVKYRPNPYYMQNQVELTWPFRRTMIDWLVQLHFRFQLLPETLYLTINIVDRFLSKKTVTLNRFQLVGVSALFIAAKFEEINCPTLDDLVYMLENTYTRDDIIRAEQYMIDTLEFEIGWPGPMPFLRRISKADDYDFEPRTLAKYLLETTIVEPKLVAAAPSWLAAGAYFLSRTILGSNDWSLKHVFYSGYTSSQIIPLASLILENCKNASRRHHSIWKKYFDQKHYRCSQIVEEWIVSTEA", "T1 sequence (P20486 whole entry partner)": "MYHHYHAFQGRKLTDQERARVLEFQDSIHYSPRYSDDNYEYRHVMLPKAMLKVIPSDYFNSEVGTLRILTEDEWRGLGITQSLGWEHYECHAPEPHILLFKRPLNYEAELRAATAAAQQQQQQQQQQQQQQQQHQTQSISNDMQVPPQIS", "assay": "Peptide kinetics with the model substrate (data not shown)", "format": "biochemical", "procedure": "(§1) The four major cyclin-Cdk1 complexes used in our experiments seem sufficient for describing\n(§2) the general dynamic changes of Cdk1 specificity during the cell cycle, as the rest of the cyclins,\n(§3) Clb1 and Clb4 (Grandin and Reed, 1993) as well as Cln3 and Clb6 (Cross et al., 2002; Tyers et\n(§4) al., 1993) are less abundant and therefore minor contributors to the total concentration of\n(§5) activated Cdk1, and most likely would not yield significant changes to the general model. In\n(§6) an intermediate KM (210 μM) for the model substrate (data not shown). However, due to poor\n(§7) purification yields, this kinase was excluded from detailed analysis. Additionally, the other G1\n(§8) towards the peptide substrate (KM > 1 mM, data not shown).\n(§9) Our findings have raised an intriguing question of how cyclins can change the specificity\n(§10) of the Cdk1 active site, so that its ability to bind and phosphorylate the consensus site motif is\n(§11) altered. These cyclin-specific effects could be due to specific conformational changes induced by\n(§12) cyclin in the Cdk1 molecule, resulting in altered accessibility and configuration of its active site.\n(§13) of Swe1 to phosphorylate different cyclin-Cdk1 complexes at the active site-gating Y19 residue.\n(§14) The other gradually changing feature, the relative differences in RXL-dependent docking\n(§15) mechanisms among the B-type cyclin-Cdk1s, could also be due to different specific […]"}, "Cln1-Cdk1": {"biological_target": "Cln1-Cdk1 (Saccharomyces cerevisiae, UniProt P00546+P20437)", "sequence (P00546 2-298 limits assumed)": "as the sequence (P00546 2-298 limits assumed) above", "sequence (P20437 whole entry partner)": "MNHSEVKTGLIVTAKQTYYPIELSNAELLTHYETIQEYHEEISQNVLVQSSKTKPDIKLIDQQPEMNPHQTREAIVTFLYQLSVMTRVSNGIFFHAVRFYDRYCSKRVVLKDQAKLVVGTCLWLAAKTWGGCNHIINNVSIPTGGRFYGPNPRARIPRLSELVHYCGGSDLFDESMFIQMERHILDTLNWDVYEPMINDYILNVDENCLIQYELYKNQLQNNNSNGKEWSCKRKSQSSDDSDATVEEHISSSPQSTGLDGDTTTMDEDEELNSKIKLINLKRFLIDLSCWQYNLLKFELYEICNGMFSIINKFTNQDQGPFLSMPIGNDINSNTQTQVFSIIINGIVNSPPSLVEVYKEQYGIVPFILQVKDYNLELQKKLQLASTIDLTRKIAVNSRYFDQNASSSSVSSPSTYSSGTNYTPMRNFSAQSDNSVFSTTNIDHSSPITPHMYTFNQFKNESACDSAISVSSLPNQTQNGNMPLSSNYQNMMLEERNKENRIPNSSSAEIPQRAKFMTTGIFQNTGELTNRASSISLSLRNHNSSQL", "sequence (P20486 whole entry partner)": "as the sequence (P20486 whole entry partner) above", "assay": "Peptide kinetics with the model substrate (data not shown)", "format": "biochemical", "procedure": "as §1, §2, §3, §4, §5, §6, §7, §8, §9, §10, §11, §12, §13, §14, §15"}, "Clb2-Cdk1": {"biological_target": "T2, Clb2-Cdk1 (Saccharomyces cerevisiae, UniProt P00546+P24869)", "T2 construct": "We purified the four cyclin-Cdk1 complexes from yeast; made in house; host or cells: S. cerevisiae strain DOM0077 (gal-CLB2-TAP, sic1 deleted); Cks1 from bacteria", "T2 sequence (P00546 2-298 limits assumed)": "as the sequence (P00546 2-298 limits assumed) above", "T2 sequence (P24869 2-491 partner limits assumed)": "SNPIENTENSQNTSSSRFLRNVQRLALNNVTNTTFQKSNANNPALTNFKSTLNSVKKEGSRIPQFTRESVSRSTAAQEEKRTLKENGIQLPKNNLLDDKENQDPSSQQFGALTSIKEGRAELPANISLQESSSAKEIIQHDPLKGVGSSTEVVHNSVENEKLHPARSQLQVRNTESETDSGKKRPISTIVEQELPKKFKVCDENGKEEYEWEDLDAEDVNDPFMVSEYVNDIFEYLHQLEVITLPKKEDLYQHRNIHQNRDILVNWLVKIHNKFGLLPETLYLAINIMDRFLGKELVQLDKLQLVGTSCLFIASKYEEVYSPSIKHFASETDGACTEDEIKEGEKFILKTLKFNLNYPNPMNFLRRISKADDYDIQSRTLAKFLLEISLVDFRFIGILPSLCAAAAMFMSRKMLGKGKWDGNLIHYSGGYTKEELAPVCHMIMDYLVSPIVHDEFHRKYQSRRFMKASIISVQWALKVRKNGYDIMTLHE", "T2 sequence (P20486 whole entry partner)": "as the sequence (P20486 whole entry partner) above", "conditions": "higher specificity for mitotic Clb2-Cdk1 than S phase Clb5-Cdk1; ref Loog and Morgan, 2005; cited from earlier work", "text": "To study how different cyclins modulate the substrate specificity of Cdk1, we performed a quantitative analysis of yeast Cdk1 specificity in complex with each of four cyclins: the G1/S cyclin Cln2, the S phase triggering cyclin Clb5, the G2/M cyclin Clb3, and the mitotic cyclin Clb2. The cellular levels of these four cyclins peak in sequence over the course of the cell cycle (Figure 1A). We purified the four cyclin-Cdk1 complexes from yeast (Figure 1D) and analyzed their kinetic properties with a commonly used optimal model substrate for Cdk1, a peptide derived from the general substrate Histo ..."}},
  "data": [
    {"sequence": "PKTPKKAKKL [optimal model substrate for Cdk1, a peptide derived from the general substrate Histone H1]", "values": [
      {"measurement": "Km", "setting": "Clb4-Cdk1", "result": 210, "unit": "µM"},
      {"measurement": "Km", "setting": "Cln1-Cdk1", "result": "> 1000", "unit": "µM"},
      {"measurement": "specificity for Clb2-Cdk1 as compared with Clb5-Cdk1", "setting": "Clb2-Cdk1", "result": "about 20 fold"}
    ]}
  ]
}
